Laboratory results from patent publication US9012397B2 (priority 2011, dated 2015).
Read-outs that look alike come from different tables or passages of the source.

Legend:
Format in all cases: in vivo, human
Herpes zoster = conditions: person, 50 μg/gr cream
Description: (§1) The method of the invention has been carried out with respect to a number of skin disorders. The patients were treated with one of two peptides, each at a concentration of 50 μg/gr cream (unless otherwise indicated):
(§2) The cream was manufactured by Amiga LTD, Israel, and contains the following components:
1. A person was diagnosed with Herpes zoster (shingles), which appeared as a painful, circumferential rash in the abdominal area. The patient had been on antibiotics, with no improvement.
2. A person was diagnosed with Herpes zoster, which appeared as painful lesions with skin edema on the mid back area, appearing several times a year. […] Decrease in the skin rash and the degree of the sore and swelling and a shortening of the time of recovery (healing).

radiation burns = conditions: person two after mastectomy, severe radiation burns; 500 μg/gr cream several times per day
Description: as §1, §2
4. A person with breast cancer received radiation treatment. The person suffered from radiation burns in a large skin area with blisters and open wounds. ZEP4 was applied directly to the wounds over a period of 12 days, 1-2 times per day. • Results: an immediate (˜1 minute) ease in the itching and burning sensation.
7. person two with breast cancer after mastectomy received radiation treatment. The person suffered from severe radiation burns.

itching = conditions: person
Description: as §1, §2
1. A person suffered from a strong itching sensation on the skin all over the body for no apparent reason.
2. A person suffered from a red rash and itching sensation on their breast. ZEP4 (500 μg/gr cream) was applied twice in a period of 2 hours. • Results: relief from itching within 10 minutes.
3. A person suffered from a strong itching sensation in the lower limbs which sometimes spread to the abdomen and back. […] I. Skin Infection

flea bites = tested on: flea bites
Description: as §1, §2
1. person two was bitten by fleas on various occasions, resulting in an itching sensation. […] The ointment was reapplied after 6 hours.
2. person one who is very sensitive to flea bites was bitten by fleas, resulting in an itching sensation. […] The ointment should be reapplied after 12 hours.

Herpes simplex = tested on: Herpes simplex
Description: as §1, §2
5. A person suffered for many years from Herpes simplex on the neck, with no relief from commercial remedies. ZEP3 was applied topically once a day to the lesions. • Results: relief in itching and skin rash within 10-20 min.
6. person two was diagnosed with Herpes simplex.
7. person one was diagnosed with Herpes simplex.
8. person four suffered from Herpes simplex from childhood.
9. A person suffered from Herpes simplex lesions on the lips and face. […] 1-2 applications cause the lesions to disappear.
10. A person suffered from Herpes simplex on the lips, mainly when under pressure. […] The blisters disappeared after 24 hours.
11. A person suffered from Herpes simplex on the lips. ZEP3 (500 μg/gr cream) was topically applied several times during the day on the wound. • Results: the person felt relief after several minutes. The itching and redness lessened immediately and the wound disappeared after 36 hours.
12. 7 subjects suffering from Herpes simplex were treated with ZEP3.
13. A person suffered from Herpes simplex lesions on the lips.
14. A person has a festering Herpes simplex lesion. Generally, 10 days are required for recuperation.
15. A person suffered intermittingly from Herpes simplex on the lips, with blisters.

Varicella = conditions: person, 50 μg/gr cream
Description: as §1, §2
3. A person was diagnosed with severe Varicella, which appeared all over the body. The patient had severe itching and skin peeling. No commercial remedy helped. Initially, ZEP3 was topically applied to the hand, with improvement and relief within 24 hours. […] After 10 days, there was no sign of the disease nor were there any future complications.

bee stings = conditions: both hands stung, 500 μg/gr cream once to the other hand, about 10 minutes after sting
Description: as §1, §2
3. A person was stung by a bee.
4. person four was stung by bees on both hands.
5. person three was stung by bees on both hands.

vaginal herpes = conditions: female over 40, lesions on outer genital area; 50 μg/gr cream daily
Description: as §1, §2
4. A person over 40 suffered from advance vaginal herpes, with numerous lesions on the outer genital area and pronounced itching and swelling.

psoriasis = conditions: person
Description: as §1, §2
1. A person suffered from intermittent psoriasis on their head over many years. […] The patient believes that the frequency of the outbreaks has been reduced.
2. A person suffered from psoriasis on the hands. […] The patient believes that a 20% improvement has occurred over 2 weeks.
3. A person suffered from psoriasis in the anus.
4. A person suffered from extensive psoriasis at various locations. ZEP3 (500 μg/gr cream) was applied to the sores as needed. • Results: the itching ceased within 12 hours.
5. A person suffered from chronic psoriasis on the elbow.
6. A person suffered from severe psoriasis at various locations. They regularly went for treatments to the Dead Sea in Israel.

[1] = abdominal rash, 2-3 times a day
[2] = person, lesions on lips and face, 50 μg/gr cream
[3] = person, lips, 500 μg/gr cream several times a day
[4] = person, neck, 50 μg/gr cream once a day
[5] = entire body twice a day for two weeks
[6] = chronic psoriasis on elbow, 500 μg/gr cream
[7] = intermittent psoriasis on head, 500 μg/gr cream once or twice a day

pGLU-ASN-TRP-LYS-C8 [ZEP3]
clinical outcome (Herpes zoster; [1]): a decrease in the skin redness and the degree of the swelling and itching | time to improvement in the rash (Herpes zoster; [1]): 2 to 10 min | clinical outcome (Herpes zoster; lesions with skin edema on mid back, applied 4-5 times): reduced skin edema and an increase in the intervals between attacks. Decrease in the skin rash and the degree of the sore and swelling and a shortening of the time of recovery (healing) | clinical outcome (radiation burns): felt immediate relief | clinical outcome (itching; strong itching all over the body, 500 μg/gr cream a number of times): immediate relief from itching, which ceased | clinical outcome (itching; strong itching in lower limbs, 500 μg/gr cream as needed): immediate relief | clinical outcome (flea bites; person one very sensitive to flea bites, 50 μg/gr cream): almost immediate cessation of the itching sensation | clinical outcome (flea bites; person two, 50 μg/gr cream several times to bite location): immediate cessation of the itching sensation | clinical outcome (Herpes simplex; 7 subjects, 50 μg/gr cream): found to be therapeutic | clinical outcome as compared to treatment with Zovirax® (Herpes simplex; person four, 50 μg/gr cream several times): Rapid drying of the lesion, shrinking of swelling and swift conclusion of the outbreak | recuperation period (Herpes simplex; person, festering lesion, generally 10 days required, 500 μg/gr cream as needed): shortened by half | clinical outcome (Herpes simplex; [2]): the lesions now appear only infrequently | number of applications that cause the lesions to disappear (Herpes simplex; [2]): 1-2 applications | clinical outcome (Herpes simplex; person, lips with blisters, 500 μg/gr cream as needed): immediate relief; the blisters stopped developing and disappeared after several hours | clinical outcome (Herpes simplex; [3]): felt relief after several minutes. The itching and redness lessened immediately | time until wound disappeared (Herpes simplex; [3]): 36 h | clinical outcome (Herpes simplex; [4]): The lesions disappeared and did not return during the last 5 years | time to relief in itching and skin rash (Herpes simplex; [4]): 10 to 20 min | clinical outcome (Herpes simplex; person, pricking sensation on upper lip, 500 μg/gr cream as needed): the pricking sensation ceased and Herpes lesions did not develop | clinical outcome (Varicella; [5]): shortening the time of recovery (healing) | time to decrease in the skin rash and the degree of the sore and swelling (Varicella; [5]): 10 to 20 min | time until no sign of the disease (Varicella; [5]): 10 days | time to improvement and relief (Varicella; initial application to the hand): ≤ 24 h | clinical outcome (bee stings; person four): the swelling shrunk and the redness decreased to an identical degree on each hand | clinical outcome (bee stings; person three): the swelling shrunk and the redness decreased to an identical degree on each hand | clinical outcome (vaginal herpes): the redness and swelling decreased, and the lesions healed | clinical outcome (psoriasis; [6]): the flaking of the skin disappeared and the normal skin appearance returned | time until itching terminated (psoriasis; [6]): 2 h | time until itching ceased (psoriasis; extensive psoriasis, 500 μg/gr cream as needed): ≤ 12 h | clinical outcome (psoriasis; [7]): the disease disappeared | time to relief (psoriasis; [7]): 10 to 20 min | time until relief is felt (psoriasis; psoriasis in the anus, (500 μg/gr cream) once a day): 4 days | clinical outcome (psoriasis; psoriasis in the anus, (500 μg/gr cream) once a day, stopped several days, repeated for 4 days): the psoriasis disappeared | clinical outcome (psoriasis; psoriasis on hands, 500 μg/gr cream once a day): feels relief; the skin is pleasant feeling and not itchy | improvement as believed by the patient (psoriasis; psoriasis on hands, 500 μg/gr cream once a day, over 2 weeks): 20%
